According to ChEMBL document CHEMBL5050836, “Inhibitors of eya3-protein tyrosine phosphatase in dna damage repair signaling of pulmonary arterial hypertension” (2021):
Active and inactive are the calls of the source. The rule behind the calls is not given here.

Tests used:
Lung [1] = experiment: Protection against pulmonary hypertension in Sugen-Hypoxia (SuHx) rat model assessed as reduction in 53BP1 foci in lungs; type: functional, tissue-based
Liver = experiment: Hepatotoxicity in rats at 0.15 to 1.5 mg administered via instillation in to trachea; type: toxicity; settings: rat, in vivo, inhaled_or_intranasal; dose 0.15-1.5 mg
Lung [2] = experiment: Protection against pulmonary hypertension in Sugen-Hypoxia (SuHx) rat model assessed as reduction in gamma-H2AX foci in lungs; type: functional, tissue-based

Compound: CCc1oc2ccccc2c1C(=O)c1ccc(O)cc1 [BENZARONE]
- Activity (Lung [1]): Active
- Activity (Liver): Non-Toxic
- Activity (Lung [2]): Active
